Measured values as given in patent US9066959B2, “Ficus extracts having angiogenesis inhibiting activity and methods of isolating and using the same” (BOARD OF SUPERVISORS OF LOUISIANA STATE UNIVERSITY AND …, priority 2008, dated 2015).

Experiments:
[1] = system: fragments from a neuroendocrine lymph node metastasis; assay: tumor fragment fibrin clot angiogenesis assay, neuroendocrine lymph node metastasis; type: cell-based, human; conditions: 1 mM, day 14, control compound
Experimental: (§1) Fibrin clots were prepared in 96-well plates (Corning Inc., Corning, N.Y.). Each well was preloaded with a human thrombin solution (0.05 IU/mL; in 2.0 μL/well), (Sigma Chemical Company, St Louis, Mo.). A pre-coagulation solution was prepared by dissolving fibrinogen (0.3%; Sigma) and ∈-aminocaproic acid (0.5%; Sigma) in serum-free growth medium consisting of medium 199 (Mediatech, Herndon Va.) supplemented with an antibiotic-antifungal solution (Gibco/Invitrogen, Grand Island, N.Y.; 100 Units/mL of sodium penicillin G, 100 μg/mL of streptomycin sulfate, and 25 μg of amphotericin B) and buffered to a pH of 7.6. Tumor specimens were placed in chilled serum-containing growth media (medium 199 with 20% fetal bovine serum [FBS], Gibco/Invitrogen) and kept under refrigeration until they were processed. The specimens were processed within 24 hours of surgical harvesting. Minced tumor fragments approximately 2 mm in diameter and 1 mm thick were prepared and rapidly embedded within the fibrin clots. Each tumor fragment was placed in the center of a thrombin-treated well. […] Percent initiation (% I) is a ratio calculated from the number of wells that developed an angiogenic response divided by the total number of wells prepared (×100). […] On day 14, fragments were examined microscopically and scored for an angiogenic response (angiogenic index=0-16). […]

fragments from a sarcoma = assay: tumor fragment fibrin clot angiogenesis assay, sarcoma; type: cell-based, human; conditions: 1 mM, day 14, control compound
Experimental: as §1

For `O=C(O)c1cc(O)c(O)c(O)c1` [Gallic Acid], the “angiogenic response (angiogenic index 0-16)” value [1] was “total inhibition” and the “angiogenic response (angiogenic index 0-16)” value (fragments from a sarcoma) was “total inhibition”.
